One data set addresses T1, hCA II (Homo sapiens, UniProt P00918).
T1 construct: made in house
The data set is described as follows: stopped-flow CO2 hydrase assay, hCA II. The format is biochemical. The source says:
. The structure-activity relationship is discussed separately for the two compound subsets. Another code pattern is included for the MTDLs in Table 1, which indicates the derivative CAI type (sulphonamide, S or coumarin, C) and the number of atoms in the spacers connecting either berberine and the triazole (carbon atoms) or the triazole and the benzenesulfonamide/coumarin scaffolds (carbon or oxygen atoms).
(§1) An Applied Photophysics stopped-flow instrument has been used for assaying the CA-catalysed CO2 hydration activity, as reported earlier. The enzyme concentrations were in the range 5–12 nM. All hCA isoforms were recombinant proteins, being obtained in-house as reported earlier.

The next data set has as its target T2, hCA I (Homo sapiens, UniProt P00915).
T2 construct: made in house
Nature of the data set: stopped-flow CO2 hydrase assay, hCA I. The format is biochemical. As for the experimental part: as §1

In another data set the test system is HeLa cells. The data set is described as follows: MTT assay, HeLa cells in normoxia. The format is cell-based. Particulars: for IC50: Homo sapiens. The source says:
Combining the results on carbonic anhydrase inhibition and GQ thermal stabilisation, we selected the sulphonamides S-2,0, S-4,0, S-5,0 and the coumarins C-3,2, C-4,2, C-5,2 as the most promising MTDLs to be further investigated, since able to both efficiently suppress the activity of the hCAs IX/XII and stabilise GQ structures, in vitro. Moreover, given that crystals suitable for X-ray diffraction analyses had been successfully obtained for the human telomeric DNA GQ in complex with S-3,2, we also included such sulphonamide derivative in the subsequent studies. Thus, we assessed the cytotoxicity of the selected MTDLs on CA IX-positive HeLa cells, using the MTT assay.
HeLa cells were grown in Dulbecco’s Modified Eagle’s Medium supplemented with 10% FBS, 100 U/mL penicillin, and 100 μg/mL streptomycin, at 37 °C, in a 5% CO2/95% air atmosphere. Cells were sub-cultured at 90% confluence, in the split ratio 1:8, every 3–5 days. The MTDLs used in this study, as well as the CAIs S and C, were dissolved in DMSO at 40 mM (for the sulphonamides) or 10 mM (for the coumarins) concentration. As for berberine, a 50 mM stock solution in DMSO was prepared. Each tested compound was diluted in cell culture medium to the required concentration, immediately prior to use. As regards the experiments under hypoxic conditions, an 80 mM stock solution of CoCl2 was prepared in sterile distilled water and further diluted in medium to obtain the final desired concentrations.
For the MTT experiments in the presence of normal oxygen levels, HeLa cells were seeded in 96-well plates at a density of 15,000 cells per well (culture medium volume – 100 μL/well) and incubated at 37 °C, for 24 h. The medium was then removed, and HeLa were incubated, for 48 h, with fresh medium containing increasing concentrations of MTDLs, single-target-directed agents (berberine, S, and C) or vehicle (0.5% DMSO). The MTDL C-4,2 was also tested for 12 h. As for the co-treatments, cells were co-treated for 12 h with equimolar concentrations of berberine and C. As regards the MTT experiments under hypoxic conditions, HeLa cells were seeded in 96-well plates (8,000 cells per well) and incubated overnight, pre-treated with 50 μM cobalt (II) chloride hexahydrate (CoCl2) and then, for the following 12 h, either exposed to increasing concentrations of C-4,2 or vehicle (0.5% DMSO), or co-treated with equimolar concentrations of berberine and C. Each condition was assayed in triplicate. At the end of the treatments, 10 µL of MTT reagent were added to each well, at a final concentration of 0.5 mg/mL, and the plates were incubated at 37 °C for 4 h. To dissolve the resulting purple formazan crystals, 100 μL of the solubilisation solution were added into each well and the plates were allowed to stand overnight in the incubator (37 °C, 5% CO2/95% air). Finally, the optical density of the samples (at 570 nm) was measured on an ELx800 Absorbance Microplate Reader (BioTek Instruments, Inc., Winooski, VT, USA). The percentage (%) of cell survival for each condition was calculated by using the following equation: % cell survival=OD− OD0/ODCONTROL− OD0×100 where OD is the optical density of the sample, OD0 is the optical density of the background signal, and ODCONTROL is the optical density of the control sample (cells treated with vehicle, 0.5% DMSO). The concentration able to reduce by 50% the cellular viability (IC50) was calculated, for each investigated compound, using Prism 8.0.2 (GraphPad, San Diego, CA, USA) and plotting the percentage of cell survival versus the compound concentration (µM).

Setting [1] is: sulphonamides, inhibitor-enzyme incubation 15 min, mean ± SEM of three assays.
Where [2] appears, read: 48 h, normoxia, read-out: IC50 (50% of cell viability reduction), MTT assay.
[3] abbreviates: coumarins, inhibitor-enzyme incubation 6 h.

Read-outs that look alike come from different tables or passages of the source.

From PMC11195807, “Development of a multi-targeted chemotherapeutic approach based on G-quadruplex stabilisation and carbonic anhydrase inhibition” (Journal of Enzyme Inhibition and Medicinal Chemistry, 2024) come the findings set out here.

T2 sequence (P00915 whole entry): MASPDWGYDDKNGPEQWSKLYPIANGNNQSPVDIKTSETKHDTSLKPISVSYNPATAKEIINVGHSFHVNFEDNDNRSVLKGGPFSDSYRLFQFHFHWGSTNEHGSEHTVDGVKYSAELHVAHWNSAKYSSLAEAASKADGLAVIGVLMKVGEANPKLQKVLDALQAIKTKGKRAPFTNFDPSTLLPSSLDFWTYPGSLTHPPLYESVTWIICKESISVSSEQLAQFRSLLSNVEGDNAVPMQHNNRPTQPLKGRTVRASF

For `COc1ccc2cc3[n+](cc2c1OCCn1cc(-c2ccc(S(N)(=O)=O)cc2)nn1)CCc1cc2c(cc1-3)OCO2` [Compound 26, 10-Methoxy-9–(2-(4–(4-sulfamoylphenyl)-1H-1,2,3-triazol-1-yl)ethoxy)-5,6-dihydro-[1,3]dioxolo[4,5-g]isoquinolino[3,2-a]isoquinolin-7-ium hexafluorophosphate], the Ki – broadly, a measure of affinity in units of concentration, obtained from inhibition or displacement – was 0.0594 ± 0.0038 µM on hCA II (setting [1]) and 0.581 ± 0.0325 µM at hCA I (setting [1]). Besides, the “IC50 (50% of cell viability reduction), MTT assay” value in the data set with HeLa cells (48 h, normoxia) is on record as “fell outside the explored range of concentrations”. In the data set with HeLa cells (setting [2]), the IC50 (commonly the concentration at which inhibition is half-maximal) is more than 200 µM.

Turning to `COc1ccc2cc3[n+](cc2c1OCCCn1cc(COc2ccc(S(N)(=O)=O)cc2)nn1)CCc1cc2c(cc1-3)OCO2` [Compound 29, 10-Methoxy-9–(3-(4-((4-sulfamoylphenoxy)methyl)-1H-1,2,3-triazol-1-yl)propoxy)-5,6-dihydro-[1,3]dioxolo[4,5-g]isoquinolino[3,2-a]isoquinolin-7-ium hexafluorophosphate], the Ki on hCA II (setting [1]) was 0.0623 ± 0.0047 µM; at hCA I (setting [1]), 0.805 ± 0.0608 µM. Further, the “IC50 (50% of cell viability reduction), MTT assay” value with HeLa cells (48 h, normoxia) is “fell outside the explored range of concentrations”. The half-inhibitory concentration (IC50) in the data set with HeLa cells (setting [2]) is more than 200 µM.

Turning to `COc1ccc2cc3[n+](cc2c1OCCCCn1cc(-c2ccc(S(N)(=O)=O)cc2)nn1)CCc1cc2c(cc1-3)OCO2` [Compound 30, 10-Methoxy-9–(4–(4-(4-sulfamoylphenyl)-1H-1,2,3-triazol-1-yl)butoxy)-5,6-dihydro-[1,3]dioxolo[4,5-g]isoquinolino[3,2-a]isoquinolin-7-ium hexafluorophosphate], the Ki came out at 0.0551 ± 0.0038 µM at hCA II (setting [1]) and 0.592 ± 0.0363 µM at hCA I (setting [1]). In the data set on HeLa cells (setting [2]), the IC50 worked out at 35 µM.

On to `COc1ccc2cc3[n+](cc2c1OCCCCCn1cc(-c2ccc(S(N)(=O)=O)cc2)nn1)CCc1cc2c(cc1-3)OCO2` [Compound 32, 10-Methoxy-9-((5–(4-(4-sulfamoylphenyl)-1H-1,2,3-triazol-1-yl)pentyl)oxy)-5,6-dihydro-[1,3]dioxolo[4,5-g]isoquinolino[3,2-a]isoquinolin-7-ium hexafluorophosphate], for which the values for the Ki on hCA II (setting [1]) and at hCA I (setting [1]) were 0.0158 ± 0.0012 µM and 0.574 ± 0.0358 µM, respectively. Moreover, the “reduction in the percentage of cell survival” value in the data set with HeLa cells (48 h, concentration up to 200 µM) is “around 40%”. In addition, the “IC50 (50% of cell viability reduction), MTT assay” value in the data set with HeLa cells (48 h, normoxia) is “fell outside the explored range of concentrations”. In addition, in the data set with HeLa cells (setting [2]), the IC50 was more than 200 µM.

With `COc1ccc2cc3[n+](cc2c1OCCCn1cc(COc2ccc4ccc(=O)oc4c2)nn1)CCc1cc2c(cc1-3)OCO2` [Compound 34, 10-Methoxy-9–(3-(4-(((2-oxo-2H-chromen-7-yl)oxy)methyl)-1H-1,2,3-triazol-1-yl)propoxy)-5,6-dihydro-[1,3]dioxolo[4,5-g]isoquinolino[3,2-a]isoquinolin-7-ium hexafluorophosphate], the Ki on hCA II (setting [3]) and on hCA I (setting [3]) was more than 100 µM each time. For the same compound, in the data set on HeLa cells (48 h, normoxia), the “IC50 (50% of cell viability reduction), MTT assay” value is “fell outside the explored range of concentrations”. Further, the concentration for half-maximal inhibition (IC50) in the data set on HeLa cells (setting [2]) is more than 50 µM.

On to `COc1ccc2cc3[n+](cc2c1OCCCCn1cc(COc2ccc4ccc(=O)oc4c2)nn1)CCc1cc2c(cc1-3)OCO2` [Compound 37, 10-Methoxy-9–(4-(4-(((2-oxo-2H-chromen-7-yl)oxy)methyl)-1H-1,2,3-triazol-1-yl)butoxy)-5,6-dihydro-[1,3]dioxolo[4,5-g]isoquinolino[3,2-a]isoquinolin-7-ium hexafluorophosphate], for which the Ki on hCA II (setting [3]) and on hCA I (setting [3]) was more than 100 µM in each case. Also, in the data set with HeLa cells (12 h, normoxia), the “cytotoxicity compared with co-exposure to equimolar berberine and C” value is “greater”. Moreover, the IC50 with HeLa cells (12 h treatment, normoxia, read-out: IC50, MTT assay) was found to be 46 µM; in the data set on HeLa cells (setting [2]), 40 µM.

For the compound `COc1ccc2cc3[n+](cc2c1OCCCCCn1cc(COc2ccc4ccc(=O)oc4c2)nn1)CCc1cc2c(cc1-3)OCO2` [Compound 39, 10-Methoxy-9-((5–(4-(((2-oxo-2H-chromen-7-yl)oxy)methyl)-1H-1,2,3-triazol-1-yl)pentyl)oxy)-5,6-dihydro-[1,3]dioxolo[4,5-g]isoquinolino[3,2-a]isoquinolin-7-ium hexafluorophosphate], the Ki on hCA II (setting [3]) and on hCA I (setting [3]) was more than 100 µM in each case. The IC50 with HeLa cells (setting [2]) came out at 37.5 µM.
